Measurements reported in paper PMC7313537 (PLoS ONE, 2020).

Legend:
Test in all cases: Broader kinase panel (PerkinElmer)
Assay type in all cases: biochemical
Conditions in all cases: 100 nM; read-out: Average Percent Inhibition
ABL1(E255K) = molecular target: T1, ABL1(E255K) (Homo sapiens, UniProt P00519, E255K)
T1 construct: purchased In-house HTRF panel (56 kinases) and PerkinElmer (161-kinase panel)
Description: (§1) […]. […] […].

Abl (T315I) = molecular target: T2, Abl (T315I) (Homo sapiens, UniProt P00519, T315I)
T2 construct: purchased In-house HTRF panel (56 kinases) and PerkinElmer (161-kinase panel)
Description: as §1

AurA = molecular target: T3, AurA (Homo sapiens, UniProt O14965)
T3 construct: purchased In-house HTRF panel (56 kinases) and PerkinElmer (161-kinase panel)
Description: as §1

BRSK2 = molecular target: T4, BRSK2 (Homo sapiens, UniProt Q8IWQ3)
T4 construct: purchased In-house HTRF panel (56 kinases) and PerkinElmer (161-kinase panel)
Description: as §1

BTK = BTK (Homo sapiens, UniProt Q06187)
Description: as §1

CAMK4 = molecular target: T5, CAMK4 (Homo sapiens, UniProt Q16566)
T5 construct: purchased In-house HTRF panel (56 kinases) and PerkinElmer (161-kinase panel)
Description: as §1

CSNK1A1 = molecular target: T6, CSNK1A1 (Homo sapiens, UniProt P48729)
T6 construct: purchased In-house HTRF panel (56 kinases) and PerkinElmer (161-kinase panel)
Description: as §1

Ca MK1a = molecular target: T7, Ca MK1a (Homo sapiens, UniProt Q14012)
T7 construct: purchased In-house HTRF panel (56 kinases) and PerkinElmer (161-kinase panel)
Description: as §1

DCAMKL1 = molecular target: T8, DCAMKL1 (Homo sapiens, UniProt O15075)
T8 construct: purchased In-house HTRF panel (56 kinases) and PerkinElmer (161-kinase panel)
Description: as §1

DDR2 = molecular target: T9, DDR2 (Homo sapiens, UniProt Q16832)
T9 construct: purchased In-house HTRF panel (56 kinases) and PerkinElmer (161-kinase panel)
Description: as §1

EGFR = EGFR (Homo sapiens, UniProt P00533)
Description: as §1

EPHA8 = molecular target: T10, EPHA8 (Homo sapiens, UniProt P29322)
T10 construct: purchased In-house HTRF panel (56 kinases) and PerkinElmer (161-kinase panel)
Description: as §1

EPHB1 = molecular target: T11, EPHB1 (Homo sapiens, UniProt P54762)
T11 construct: purchased In-house HTRF panel (56 kinases) and PerkinElmer (161-kinase panel)
Description: as §1

EPHB3 = molecular target: T12, EPHB3 (Homo sapiens, UniProt P54753)
T12 construct: purchased In-house HTRF panel (56 kinases) and PerkinElmer (161-kinase panel)
Description: as §1

EPHB4 = molecular target: T13, EPHB4 (Homo sapiens, UniProt P54760)
T13 construct: purchased In-house HTRF panel (56 kinases) and PerkinElmer (161-kinase panel)
Description: as §1

FES = molecular target: T14, FES (Homo sapiens, UniProt P07332)
T14 construct: purchased In-house HTRF panel (56 kinases) and PerkinElmer (161-kinase panel)
Description: as §1

FGFR3 = molecular target: T15, FGFR3 (Homo sapiens, UniProt P22607)
T15 construct: purchased In-house HTRF panel (56 kinases) and PerkinElmer (161-kinase panel)
Description: as §1

FGFR3 [K650E] = molecular target: T16, FGFR3 [K650E] (Homo sapiens, UniProt P22607, K650E)
T16 construct: purchased In-house HTRF panel (56 kinases) and PerkinElmer (161-kinase panel)
Description: as §1

FGR = molecular target: T17, FGR (Homo sapiens, UniProt P09769)
T17 construct: purchased In-house HTRF panel (56 kinases) and PerkinElmer (161-kinase panel)
Description: as §1

FYN = molecular target: T18, FYN (Homo sapiens, UniProt P06241)
T18 construct: purchased In-house HTRF panel (56 kinases) and PerkinElmer (161-kinase panel)
Description: as §1

Fer = molecular target: T19, Fer (Homo sapiens, UniProt P16591)
T19 construct: purchased In-house HTRF panel (56 kinases) and PerkinElmer (161-kinase panel)
Description: as §1

GSK3B = molecular target: T20, GSK3B (Homo sapiens, UniProt P49841)
T20 construct: purchased In-house HTRF panel (56 kinases) and PerkinElmer (161-kinase panel)
Description: as §1

ITK = molecular target: T21, ITK (Homo sapiens, UniProt Q08881)
T21 construct: purchased In-house HTRF panel (56 kinases) and PerkinElmer (161-kinase panel)
Description: as §1

JAK2 = molecular target: T22, JAK2 (Homo sapiens, UniProt O60674)
T22 construct: purchased In-house HTRF panel (56 kinases) and PerkinElmer (161-kinase panel)
Description: as §1

LYNB = molecular target: T23, LYNB (Homo sapiens, UniProt P07948)
T23 construct: purchased In-house HTRF panel (56 kinases) and PerkinElmer (161-kinase panel)
Description: as §1

MARK1 = molecular target: T24, MARK1 (Homo sapiens, UniProt Q9P0L2)
T24 construct: purchased In-house HTRF panel (56 kinases) and PerkinElmer (161-kinase panel)
Description: as §1

MSK2 = molecular target: T25, MSK2 (Homo sapiens, UniProt O75676)
T25 construct: purchased In-house HTRF panel (56 kinases) and PerkinElmer (161-kinase panel)
Description: as §1

PDGFR-alpha (V561D) = molecular target: T26, PDGFR-alpha (V561D) (Homo sapiens, UniProt P16234, V561D)
T26 construct: purchased In-house HTRF panel (56 kinases) and PerkinElmer (161-kinase panel)
Description: as §1

PDGFRA (D842V) = molecular target: T27, PDGFRA (D842V) (Homo sapiens, UniProt P16234, D842V)
T27 construct: purchased In-house HTRF panel (56 kinases) and PerkinElmer (161-kinase panel)
Description: as §1

PKA = molecular target: T28, PKA (Homo sapiens, UniProt P17612)
T28 construct: purchased In-house HTRF panel (56 kinases) and PerkinElmer (161-kinase panel)
Description: as §1

PKC-beta1 = molecular target: T29, PKC-beta1 (Homo sapiens, UniProt P05771)
T29 construct: purchased In-house HTRF panel (56 kinases) and PerkinElmer (161-kinase panel)
Description: as §1

PKC-theta = molecular target: T30, PKC-theta (Homo sapiens, UniProt Q04759)
T30 construct: purchased In-house HTRF panel (56 kinases) and PerkinElmer (161-kinase panel)
Description: as §1

PKD1 = molecular target: T31, PKD1 (Homo sapiens, UniProt Q15139)
T31 construct: purchased In-house HTRF panel (56 kinases) and PerkinElmer (161-kinase panel)
Description: as §1

PKD3 = molecular target: T32, PKD3 (Homo sapiens, UniProt O94806)
T32 construct: purchased In-house HTRF panel (56 kinases) and PerkinElmer (161-kinase panel)
Description: as §1

RET = RET (Homo sapiens, UniProt P07949)
Description: as §1

RET Y791F = molecular target: T33, RET Y791F (Homo sapiens, UniProt P07949, Y791F)
T33 construct: purchased In-house HTRF panel (56 kinases) and PerkinElmer (161-kinase panel)
Description: as §1

RSK1 = molecular target: T34, RSK1 (Homo sapiens, UniProt Q15418)
T34 construct: purchased In-house HTRF panel (56 kinases) and PerkinElmer (161-kinase panel)
Description: as §1

RSK3 = molecular target: T35, RSK3 (Homo sapiens, UniProt Q15349)
T35 construct: purchased In-house HTRF panel (56 kinases) and PerkinElmer (161-kinase panel)
Description: as §1

TEC = molecular target: T36, TEC (Homo sapiens, UniProt P42680)
T36 construct: purchased In-house HTRF panel (56 kinases) and PerkinElmer (161-kinase panel)
Description: as §1

TRKC (NTRK3) = molecular target: T37, TRKC (NTRK3) (Homo sapiens, UniProt Q16288)
T37 construct: purchased In-house HTRF panel (56 kinases) and PerkinElmer (161-kinase panel)
Description: as §1

TXK = molecular target: T38, TXK (Homo sapiens, UniProt P42681)
T38 construct: purchased In-house HTRF panel (56 kinases) and PerkinElmer (161-kinase panel)
Description: as §1

p38alpha/SAPK2a (T106M) = molecular target: T39, p38alpha/SAPK2a (T106M) (Homo sapiens, UniProt Q16539, T106M)
T39 construct: purchased In-house HTRF panel (56 kinases) and PerkinElmer (161-kinase panel)
Description: as §1

T36 sequence (P42680 whole entry): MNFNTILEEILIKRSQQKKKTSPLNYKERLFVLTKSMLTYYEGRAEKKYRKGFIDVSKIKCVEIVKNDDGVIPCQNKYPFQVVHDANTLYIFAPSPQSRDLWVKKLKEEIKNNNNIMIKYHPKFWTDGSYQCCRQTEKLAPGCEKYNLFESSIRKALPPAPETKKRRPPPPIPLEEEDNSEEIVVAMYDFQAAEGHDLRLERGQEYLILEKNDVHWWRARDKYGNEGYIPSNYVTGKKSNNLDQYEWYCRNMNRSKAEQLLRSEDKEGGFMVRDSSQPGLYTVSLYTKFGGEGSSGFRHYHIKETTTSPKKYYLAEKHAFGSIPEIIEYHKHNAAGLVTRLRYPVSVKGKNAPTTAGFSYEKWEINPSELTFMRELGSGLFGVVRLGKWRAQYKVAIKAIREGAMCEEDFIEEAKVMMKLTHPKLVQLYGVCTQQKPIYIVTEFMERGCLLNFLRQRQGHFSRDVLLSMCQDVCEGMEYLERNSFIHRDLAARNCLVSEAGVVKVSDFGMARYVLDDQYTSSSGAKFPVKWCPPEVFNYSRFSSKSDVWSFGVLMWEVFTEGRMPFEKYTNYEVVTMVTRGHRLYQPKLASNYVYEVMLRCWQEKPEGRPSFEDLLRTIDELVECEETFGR
T31 sequence (Q15139 whole entry): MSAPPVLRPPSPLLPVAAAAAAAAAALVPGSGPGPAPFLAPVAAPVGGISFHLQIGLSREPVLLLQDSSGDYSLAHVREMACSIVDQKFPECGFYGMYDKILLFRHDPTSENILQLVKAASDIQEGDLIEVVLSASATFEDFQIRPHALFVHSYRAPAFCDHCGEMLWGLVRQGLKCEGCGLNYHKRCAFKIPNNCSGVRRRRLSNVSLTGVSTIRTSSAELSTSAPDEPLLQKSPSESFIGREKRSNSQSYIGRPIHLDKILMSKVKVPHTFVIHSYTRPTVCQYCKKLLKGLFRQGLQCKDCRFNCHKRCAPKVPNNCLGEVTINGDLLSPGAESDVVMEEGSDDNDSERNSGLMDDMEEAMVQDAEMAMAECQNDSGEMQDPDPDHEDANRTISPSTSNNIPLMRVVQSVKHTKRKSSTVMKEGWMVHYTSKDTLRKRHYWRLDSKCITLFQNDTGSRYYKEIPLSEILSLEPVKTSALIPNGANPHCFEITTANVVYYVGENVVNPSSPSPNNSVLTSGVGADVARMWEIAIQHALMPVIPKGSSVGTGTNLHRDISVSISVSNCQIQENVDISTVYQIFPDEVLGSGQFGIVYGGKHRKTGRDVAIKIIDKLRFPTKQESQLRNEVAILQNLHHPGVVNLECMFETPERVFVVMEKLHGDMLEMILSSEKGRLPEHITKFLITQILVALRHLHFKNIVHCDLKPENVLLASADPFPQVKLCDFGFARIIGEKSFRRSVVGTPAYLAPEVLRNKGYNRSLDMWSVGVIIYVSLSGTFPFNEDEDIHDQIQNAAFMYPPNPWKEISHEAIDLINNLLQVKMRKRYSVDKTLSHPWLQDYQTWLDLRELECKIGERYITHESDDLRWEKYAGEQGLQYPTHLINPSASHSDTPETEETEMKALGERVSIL
T8 sequence (O15075 whole entry): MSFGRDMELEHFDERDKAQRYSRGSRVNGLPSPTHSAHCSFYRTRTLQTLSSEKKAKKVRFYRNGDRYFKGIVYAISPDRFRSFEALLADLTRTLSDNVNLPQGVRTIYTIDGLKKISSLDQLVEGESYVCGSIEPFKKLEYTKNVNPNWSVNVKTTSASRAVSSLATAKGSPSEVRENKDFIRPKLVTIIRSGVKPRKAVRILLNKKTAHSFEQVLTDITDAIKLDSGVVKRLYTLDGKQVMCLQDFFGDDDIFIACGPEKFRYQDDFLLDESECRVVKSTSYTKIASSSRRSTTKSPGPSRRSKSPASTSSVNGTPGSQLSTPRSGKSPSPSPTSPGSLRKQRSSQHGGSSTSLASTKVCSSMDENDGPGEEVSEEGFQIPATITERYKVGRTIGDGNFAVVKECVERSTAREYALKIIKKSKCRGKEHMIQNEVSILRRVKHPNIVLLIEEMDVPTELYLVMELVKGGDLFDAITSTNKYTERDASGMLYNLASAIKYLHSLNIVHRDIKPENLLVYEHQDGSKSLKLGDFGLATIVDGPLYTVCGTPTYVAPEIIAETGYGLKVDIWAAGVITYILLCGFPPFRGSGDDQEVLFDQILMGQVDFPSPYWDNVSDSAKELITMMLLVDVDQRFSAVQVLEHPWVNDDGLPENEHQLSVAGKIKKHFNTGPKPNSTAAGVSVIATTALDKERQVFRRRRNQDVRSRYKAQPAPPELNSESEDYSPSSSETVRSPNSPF
T16 sequence (P22607 23-806 K650E): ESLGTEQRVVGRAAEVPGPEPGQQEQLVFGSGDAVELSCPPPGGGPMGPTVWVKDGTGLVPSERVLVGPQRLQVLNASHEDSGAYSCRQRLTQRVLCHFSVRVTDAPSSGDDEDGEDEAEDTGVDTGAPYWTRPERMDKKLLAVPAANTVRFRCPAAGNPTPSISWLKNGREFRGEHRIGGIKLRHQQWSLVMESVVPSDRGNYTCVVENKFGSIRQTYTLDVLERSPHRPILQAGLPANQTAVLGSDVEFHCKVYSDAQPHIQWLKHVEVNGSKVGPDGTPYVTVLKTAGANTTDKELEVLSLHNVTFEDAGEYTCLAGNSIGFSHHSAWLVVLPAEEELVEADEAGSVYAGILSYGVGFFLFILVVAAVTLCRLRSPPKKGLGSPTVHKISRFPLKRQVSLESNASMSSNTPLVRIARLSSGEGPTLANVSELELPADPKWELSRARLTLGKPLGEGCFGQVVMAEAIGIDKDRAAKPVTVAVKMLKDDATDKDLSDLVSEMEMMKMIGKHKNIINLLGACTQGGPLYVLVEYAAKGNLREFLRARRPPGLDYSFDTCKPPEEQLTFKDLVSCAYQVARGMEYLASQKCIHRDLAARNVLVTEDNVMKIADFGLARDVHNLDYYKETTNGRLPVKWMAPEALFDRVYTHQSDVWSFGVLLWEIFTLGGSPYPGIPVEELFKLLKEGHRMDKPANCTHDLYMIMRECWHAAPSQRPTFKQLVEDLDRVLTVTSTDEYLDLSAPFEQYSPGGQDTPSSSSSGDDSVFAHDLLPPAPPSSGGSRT
T14 sequence (P07332 whole entry): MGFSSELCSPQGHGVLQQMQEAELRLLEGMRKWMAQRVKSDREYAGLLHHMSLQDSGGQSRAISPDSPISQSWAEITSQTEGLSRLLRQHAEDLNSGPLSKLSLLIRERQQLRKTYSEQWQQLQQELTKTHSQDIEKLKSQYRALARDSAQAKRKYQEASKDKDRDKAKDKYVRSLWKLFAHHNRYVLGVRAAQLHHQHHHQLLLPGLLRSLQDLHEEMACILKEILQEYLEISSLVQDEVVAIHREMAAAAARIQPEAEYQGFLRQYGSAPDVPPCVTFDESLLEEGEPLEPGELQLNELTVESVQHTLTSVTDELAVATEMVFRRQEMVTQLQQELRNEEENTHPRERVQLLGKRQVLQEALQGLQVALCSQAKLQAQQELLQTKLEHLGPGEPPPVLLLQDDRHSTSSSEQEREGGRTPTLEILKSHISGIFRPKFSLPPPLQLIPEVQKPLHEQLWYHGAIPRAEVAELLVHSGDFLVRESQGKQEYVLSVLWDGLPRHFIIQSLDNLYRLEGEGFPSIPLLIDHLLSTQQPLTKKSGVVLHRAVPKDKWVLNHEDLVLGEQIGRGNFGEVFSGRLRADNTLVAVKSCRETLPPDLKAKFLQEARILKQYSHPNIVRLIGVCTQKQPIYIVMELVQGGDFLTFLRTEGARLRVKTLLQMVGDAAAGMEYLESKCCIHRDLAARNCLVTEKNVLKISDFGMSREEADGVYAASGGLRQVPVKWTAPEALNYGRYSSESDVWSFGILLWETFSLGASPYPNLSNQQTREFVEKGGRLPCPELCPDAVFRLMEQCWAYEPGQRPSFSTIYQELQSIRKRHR
T7 sequence (Q14012 whole entry): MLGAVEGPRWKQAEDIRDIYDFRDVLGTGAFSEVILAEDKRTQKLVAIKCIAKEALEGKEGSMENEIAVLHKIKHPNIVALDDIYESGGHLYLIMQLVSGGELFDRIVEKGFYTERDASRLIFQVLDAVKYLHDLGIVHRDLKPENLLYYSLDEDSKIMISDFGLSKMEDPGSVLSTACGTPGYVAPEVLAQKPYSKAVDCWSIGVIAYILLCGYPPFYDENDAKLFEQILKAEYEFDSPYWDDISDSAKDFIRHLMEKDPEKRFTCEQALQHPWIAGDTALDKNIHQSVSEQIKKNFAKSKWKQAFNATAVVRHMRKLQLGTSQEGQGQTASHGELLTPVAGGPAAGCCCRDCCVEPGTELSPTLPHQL
T37 sequence (Q16288 32-839): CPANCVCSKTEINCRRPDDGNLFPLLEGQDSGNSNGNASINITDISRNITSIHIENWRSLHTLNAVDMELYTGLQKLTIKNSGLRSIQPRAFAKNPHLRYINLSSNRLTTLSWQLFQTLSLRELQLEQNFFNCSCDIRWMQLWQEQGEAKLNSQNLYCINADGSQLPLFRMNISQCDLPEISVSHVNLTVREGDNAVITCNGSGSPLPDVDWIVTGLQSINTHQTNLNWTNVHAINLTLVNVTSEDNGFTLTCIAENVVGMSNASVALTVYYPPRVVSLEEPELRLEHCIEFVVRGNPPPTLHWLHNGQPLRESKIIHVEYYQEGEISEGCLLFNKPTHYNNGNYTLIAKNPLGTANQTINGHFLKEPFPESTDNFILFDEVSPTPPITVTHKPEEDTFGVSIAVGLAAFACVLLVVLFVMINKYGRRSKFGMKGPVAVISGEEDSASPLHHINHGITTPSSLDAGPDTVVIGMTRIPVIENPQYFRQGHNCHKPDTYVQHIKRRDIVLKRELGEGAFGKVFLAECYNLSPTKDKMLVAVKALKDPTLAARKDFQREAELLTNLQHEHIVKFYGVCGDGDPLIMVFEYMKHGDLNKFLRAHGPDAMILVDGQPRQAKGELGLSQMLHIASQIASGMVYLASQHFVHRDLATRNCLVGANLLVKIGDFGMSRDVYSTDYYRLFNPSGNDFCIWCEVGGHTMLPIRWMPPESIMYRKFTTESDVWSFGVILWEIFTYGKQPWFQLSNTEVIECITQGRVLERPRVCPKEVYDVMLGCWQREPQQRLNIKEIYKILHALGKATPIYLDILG

SMILES: CCN1C(=O)N(c2c(F)c(OC)cc(OC)c2F)Cc2cnc3[nH]c(CN4CCOCC4)cc3c21 [INCB054828, pemigatinib]
- inhibition at 0.1 µM (ABL1(E255K)): 6%
- inhibition at 0.1 µM (Abl (T315I)): 2%
- inhibition at 0.1 µM (AurA): 6%
- inhibition at 0.1 µM (BRSK2): -2%
- inhibition at 0.1 µM (BTK): -3%
- inhibition at 0.1 µM (CAMK4): -1%
- inhibition at 0.1 µM (CSNK1A1): -1%
- inhibition at 0.1 µM (Ca MK1a): 3%
- inhibition at 0.1 µM (DCAMKL1): -4%
- inhibition at 0.1 µM (DDR2): -1%
- inhibition at 0.1 µM (EGFR): 23%
- inhibition at 0.1 µM (EPHA8): -2%
- inhibition at 0.1 µM (EPHB1): 0%
- inhibition at 0.1 µM (EPHB3): 0%
- inhibition at 0.1 µM (EPHB4): 4%
- inhibition at 0.1 µM (FES): -11%
- inhibition at 0.1 µM (FGFR3): 98%
- inhibition at 0.1 µM (FGFR3 [K650E]): 84%
- inhibition at 0.1 µM (FGR): 3%
- inhibition at 0.1 µM (FYN): -1%
- inhibition at 0.1 µM (Fer): 17%
- inhibition at 0.1 µM (GSK3B): -1%
- inhibition at 0.1 µM (ITK): 2%
- inhibition at 0.1 µM (JAK2): 8%
- inhibition at 0.1 µM (LYNB): 9%
- inhibition at 0.1 µM (MARK1): 10%
- inhibition at 0.1 µM (MSK2): -7%
- inhibition at 0.1 µM (PDGFR-alpha (V561D)): 1%
- inhibition at 0.1 µM (PDGFRA (D842V)): 18%
- inhibition at 0.1 µM (PKA): 1%
- inhibition at 0.1 µM (PKC-beta1): 7%
- inhibition at 0.1 µM (PKC-theta): 2%
- inhibition at 0.1 µM (PKD1): -3%
- inhibition at 0.1 µM (PKD3): 0%
- inhibition at 0.1 µM (RET): 7%
- inhibition at 0.1 µM (RET Y791F): 6%
- inhibition at 0.1 µM (RSK1): -2%
- inhibition at 0.1 µM (RSK3): -3%
- inhibition at 0.1 µM (TEC): 19%
- inhibition at 0.1 µM (TRKC (NTRK3)): 3%
- inhibition at 0.1 µM (TXK): -7%
- inhibition at 0.1 µM (p38alpha/SAPK2a (T106M)): -3%
